Measured values taken from article PMC11494293, “Biochemical and structural insights into a 5’ to 3’ RNA ligase reveal a potential role in tRNA ligation” (Proceedings of the National Academy of Sciences of the …, 2024).

Molecular target: T1, YspRLIG1 (Yasminevirus RLIG1) (Yasminevirus sp. GU-2018, UniProt A0A5K0UB63)
T1 construct: gene YASMINEVIRUS_1364; minimal RNA ligase (NTase) fold; active-site Lys73
T1 sequence (A0A5K0UB63 1-276): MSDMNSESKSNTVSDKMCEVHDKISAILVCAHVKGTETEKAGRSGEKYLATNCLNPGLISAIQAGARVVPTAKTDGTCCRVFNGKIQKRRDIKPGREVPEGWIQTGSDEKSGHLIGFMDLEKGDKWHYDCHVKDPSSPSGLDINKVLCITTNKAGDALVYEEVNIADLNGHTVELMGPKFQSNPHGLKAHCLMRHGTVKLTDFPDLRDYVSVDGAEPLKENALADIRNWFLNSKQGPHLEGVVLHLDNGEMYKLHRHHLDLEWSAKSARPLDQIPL
Test: X-ray crystal structure
Assay type: binding
Settings: crystallised in the presence of ATP, active site, either AMP or ADP modelled

SMILES	X-ray crystal structure	X-ray crystal structure (WT protein adenylated)
Nc1ncnc2c1ncn2[C@@H]1O[C@H](COP(=O)(O)OP(=O)(O)O)[C@@H](O)[C@H]1O [ADP]	In the ADP-bound YspRLIG1^WT structure, the O5-Pα bond is rotated	–
Nc1ncnc2c1ncn2[C@@H]1O[C@H](COP(=O)(O)O)[C@@H](O)[C@H]1O [AMP]	–	In the WT structure, either AMP or ADP was modeled in the active site
